Laboratory results published in patent US9783511B2, “Carbamate benzoxazine propionic acids and acid derivatives for modulation of RORgamma activity and the treatment of disease” (Merck Sharp & Dohme Corp., priority 2013, dated 2017).

Biological target: human RORgammaT-Ligand Binding Domain (LBD) (Homo sapiens (Human), UniProt P51449)
Assay: RORγ-Ligand Binding Domain TR-FRET Assay (co-activator peptide SRC1_2 recruitment)
Assay type: biochemical
Details: HIS-tagged RORγ-LBD 3 nM, biotinylated SRC1 LXXLL peptide 100 nM, incubated overnight at 4° C., 665 nm/615 nm ratio
In short: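 E. coli-expressed, Ni2+-purified HIS-tagged human RORγ-LBD at 3 nM final in 50 mM Tris pH 7.0, 50 mM KCl, 1 mM EDTA, 0.1 mM DTT, 100 μg/mL delipidated BSA. TR-FRET read-out of SRC1_2 co-activator peptide recruitment; compounds dispensed acoustically.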

Sequence of human RORgammaT-Ligand Binding Domain (LBD) (P51449 269-508): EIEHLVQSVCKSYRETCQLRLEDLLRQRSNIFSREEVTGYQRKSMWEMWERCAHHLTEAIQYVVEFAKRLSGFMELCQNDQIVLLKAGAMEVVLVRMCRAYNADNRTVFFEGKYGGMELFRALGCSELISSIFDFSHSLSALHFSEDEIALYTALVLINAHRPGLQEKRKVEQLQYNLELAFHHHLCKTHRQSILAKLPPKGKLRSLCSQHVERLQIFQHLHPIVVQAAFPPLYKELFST

SMILES	IC50 [µM]
Cc1cc(S(=O)(=O)N2C[C@H](CCC(=O)O)Oc3ccc(NC(=O)OC(C)(C)C(F)(F)F)cc32)c(Cl)cc1F [Example 6BA, (S)-3-(4-((2-chloro-4-fluoro-5-methylphenyl)sulfonyl)-6-((((1,1,1-trifluoro-2-methylpropan-2-yl)oxy)carbonyl)amino)-3,4-dihydro-2H-benzo[b][1,4]oxazin-2-yl)propanoic acid]	0.00731
CC(C)(OC(=O)Nc1ccc2c(c1)N(S(=O)(=O)c1cc(C3CC3)ccc1F)C[C@H](CCC(=O)O)O2)C(F)(F)F [Example 6CH, 3-[(2S)-4-[(5-cyclopropyl-2-fluorophenyl)sulfonyl]-6-{[(2,2,2-trifluoro-1,1-dimethylethoxy)carbonyl]amino}-3,4-dihydro-2H-1,4-benzoxazin-2-yl]propanoic acid]	0.0181
CC(C)(OC(=O)Nc1ccc2c(c1)N(S(=O)(=O)c1ccc(F)c(C(F)(F)F)c1)C[C@H]([C@@H]1C[C@H]1C(=O)O)O2)C(F)(F)F [Example 22C, (1R,2R)-2-((S)-4-((4-fluoro-3-(trifluoromethyl)phenyl)sulfonyl)-6-((((1,1,1-trifluoro-2-methylpropan-2-yl)oxy)carbonyl)amino)-3,4-dihydro-2H-benzo[b][1,4]oxazin-2-yl)cyclopropanecarboxylic acid]	0.00871
CCc1nc(S(=O)(=O)N2C[C@H](CC(C)(C)C(=O)O)Oc3ccc(NC(=O)OC(C)(C)C(F)(F)F)cc32)c(OCC(F)(F)F)s1 [Example 12R, 3-[(2S)-4-{[2-ethyl-5-(2,2,2-trifluoroethoxy)-1,3-thiazol-4-yl]sulfonyl}-6-{[(2,2,2-trifluoro-1,1-dimethylethoxy)carbonyl]ami-no}-3,4-dihydro-2H-1,4-benzoxazin-2-yl]-2,2-dimethylpropanoic acid]	0.0126
Cc1ccc(S(=O)(=O)N2C[C@H]([C@@H]3C[C@H]3C(=O)O)Oc3ccc(NC(=O)OC(C)(C)C(F)(F)F)cc32)cc1 (single isomer, unassigned) [Example 22H, (1S,2S or 1R,2R or 1S,2R or 1R,2S)-2-((S)-4-tosyl-6-((((1,1,1-trifluoro-2-methylpropan-2-yl)oxy)carbonyl)amino)-3,4-dihydro-2H-benzo[b][1,4]oxazin-2-yl)cyclopropanecarboxylic acid]	0.141
CC(C)(OC(=O)Nc1ccc2c(c1)N(S(=O)(=O)c1cccc(OC(F)F)c1)C[C@H](CCC(=O)O)O2)C(F)(F)F [Example 6T, (S)-3-(4-((3-(difluoromethoxy)phenyl)sulfonyl)-6-((((1,1,1-trifluoro-2-methylpropan-2-yl)oxy)carbonyl)amino)-3,4-dihydro-2H-benzo[b][1,4]oxazin-2-yl)propanoic acid]	0.004
COc1cc(S(=O)(=O)N2C[C@H]([C@H]3C[C@H]3C(=O)O)Oc3ccc(NC(=O)OC(C)(C)C(F)(F)F)cc32)ccc1F (single isomer, unassigned) [Example 22M, (1R,2S or 1R,2R or 1S,2S or 1S,2R)-2-((S)-4-((4-fluoro-3-methoxyphenyl)sulfonyl)-6-((((1,1,1-trifluoro-2-methylpropan-2-yl)oxy)carbonyl)amino)-3,4-dihydro-2H-benzo[b][1,4]oxazin-2-yl)cyclopropanecarboxylic acid]	0.00871
COc1cc(S(=O)(=O)N2C[C@H](CCC(=O)O)Oc3c(F)cc(NC(=O)OC(C)(C)C(F)(F)F)cc32)ccc1F [Example 29B, 3-[(2S)-8-fluoro-4-[(4-fluoro-3-methoxyphenyl)sulfonyl]-6-{[(2,2,2-trifluoro-1,1-dimethylethoxy)carbonyl]ami-no}-3,4-dihydro-2H-1,4-benzoxazin-2-yl]propanoic acid]	0.0039
COc1cc(S(=O)(=O)N2C[C@H](C[C@@](C)(O)C(=O)O)Oc3ccc(NC(=O)OC(C)(C)C(F)(F)F)cc32)ccc1F (single isomer, unassigned) [Example 18A, (R or S)-3-((S)-4-((4-fluoro-3-methoxyphenyl)sulfonyl)-6-((((1,1,1-trifluoro-2-methylpropan-2-yl)oxy)carbonyl)amino)-3,4-dihydro-2H-benzo[b][1,4]oxazin-2-yl)-2-hydroxy-2-methylpropanoic acid]	0.0129
C[C@H](C[C@H]1CN(S(=O)(=O)c2cccc(OC(F)F)c2)c2cc(NC(=O)OC(C)(C)C(F)(F)F)ccc2O1)C(=O)O (single isomer, unassigned) [Example 6CM, (S or R)-3-((S)-4-((3-(difluoromethoxy)phenyl)sulfonyl)-6-((((1,1,1-trifluoro-2-methylpropan-2-yl)oxy)carbonyl)amino)-3,4-dihydro-2H-benzo[b][1,4]oxazin-2-yl)-2-methylpropanoic acid]	0.00525
CCn1cc(S(=O)(=O)N2C[C@H](CCC(=O)O)Oc3c(F)cc(NC(=O)OC(C)(C)C(F)(F)F)cc32)c(Cl)n1 [Example 29C, 3-[(2S)-4-[(3-chloro-1-ethyl-1H-pyrazol-4-yl)sulfonyl]-8-fluoro-6-{[(2,2,2-trifluoro-1,1-dimethylethoxy)carbonyl]ami-no}-3,4-dihydro-2H-1,4-benzoxazin-2-yl]propanoic acid]	0.00968
CCOc1sc(CC)nc1S(=O)(=O)N1C[C@H](CC(C)(C)C(=O)O)Oc2ccc(NC(=O)OC(C)(C)C(F)(F)F)cc21 [Example 12P, 3-[(2S)-4-[(5-ethoxy-2-ethyl-1,3-thiazol-4-yl)sulfonyl]-6-{[(2,2,2-trifluoro-1,1-dimethylethoxy)carbonyl]ami-no}-3,4-dihydro-2H-1,4-benzoxazin-2-yl]-2,2-dimethylpropanoic acid]	0.00922
CCOc1sc(C2CC2)nc1S(=O)(=O)N1C[C@H](CCC(=O)O)Oc2ccc(NC(=O)OC(C)(C)C(F)(F)F)cc21 [Example 6CD, 3-[(2S)-4-[(2-cyclopropyl-5-ethoxy-1,3-thiazol-4-yl)sulfonyl]-6-{[(2,2,2-trifluoro-1,1-dimethylethoxy)carbonyl]amino}-3,4-dihydro-2H-1,4-benzoxazin-2-yl]propanoic acid]	0.0144
COc1cc(S(=O)(=O)N2C[C@H](CC(C)(CO)C(=O)O)Oc3ccc(NC(=O)OC(C)(C)C(F)(F)F)cc32)ccc1F (single isomer, unassigned) [Example 18L, (S or R)-3-((S)-4-((4-fluoro-3-methoxyphenyl)sulfonyl)-6-((((1,1,1-trifluoro-2-methylpropan-2-yl)oxy)carbonyl)amino)-3,4-dihydro-2H-benzo[b][1,4]oxazin-2-yl)-2-(hydroxymethyl)-2-methylpropanoic acid]	0.0104
CC(C)(OC(=O)Nc1ccc2c(c1)N(S(=O)(=O)c1cccc(C3CC3)c1)C[C@H](CC1(C(=O)O)CC1)O2)C(F)(F)F [Example 14B, (S)-1-((4-((3-cyclopropylphenyl)sulfonyl)-6-((((1,1,1-trifluoro-2-methylpropan-2-yl)oxy)carbonyl)amino)-3,4-dihydro-2H-benzo[b][1,4]oxazin-2-yl)methyl)cyclopropanecarboxy-lic acid]	0.0175
CCn1cc(S(=O)(=O)N2C[C@H](CCC(=O)O)Oc3ccc(NC(=O)OC(C)(C)C(F)(F)F)cc32)c(OC(F)F)n1 [Example 6BC, (S)-3-(4-((3-(difluoromethoxy)-1-ethyl-1H-pyrazol-4-yl)sulfonyl)-6-((((1,1,1-trifluoro-2-methylpropan-2-yl)oxy)carbonyl)amino)-3,4-dihydro-2H-benzo[b][1,4]oxazin-2-yl)propanoic acid]	0.0119
CC(C)(OC(=O)Nc1ccc2c(c1)N(S(=O)(=O)c1cccc(OC(F)(F)F)c1)C[C@H](CCC(=O)O)O2)C(F)(F)F [Example 6S, (S)-3-(6-((((1,1,1-trifluoro-2-methylpropan-2-yl)oxy)carbonyl)amino)-4-((3-(trifluoromethoxy)phenyl)sulfonyl)-3,4-dihydro-2H-benzo[b][1,4]oxazin-2-yl)propanoic acid]	0.006
CC(C)(OC(=O)Nc1cc(F)c2c(c1)N(S(=O)(=O)c1cccc(C(F)(F)F)c1)C[C@H](CCC(=O)O)O2)C(F)(F)F [Example 29E, 3-[(2S)-8-fluoro-6-{[(2,2,2-trifluoro-1,1-dimethylethoxy)carbonyl]ami-no}-4-{[3-(trifluoromethyl)phenyl]sulfo-nyl}-3,4-dihydro-2H-1,4-benzoxazin-2-yl]propanoic acid]	0.0102
Cc1cccc(S(=O)(=O)N2C[C@H](C[C@H](C)C(=O)O)Oc3ccc(NC(=O)OC(C)(C)C(F)(F)F)cc32)c1 (single isomer, unassigned) [Example 6CP, (S or R)-2-methyl-3-((S)-4-(m-tolylsulfonyl)-6-((((1,1,1-trifluoro-2-methylpropan-2-yl)oxy)carbonyl)amino)-3,4-dihydro-2H-benzo[b][1,4]oxazin-2-yl)propanoic acid]	0.0116
CCc1nc(S(=O)(=O)N2C[C@H](CC(C)(C)C(=O)O)Oc3ccc(NC(=O)OC(C)(C)C(F)(F)F)cc32)c(OC(C)C)s1 [Example 12S, 3-[(2S)-4-{[2-ethyl-5-(1-methylethoxy)-1,3-thiazol-4-yl]sulfonyl}-6-{[(2,2,2-trifluoro-1,1-dimethylethoxy)carbonyl]ami-no}-3,4-dihydro-2H-1,4-benzoxazin-2-yl]-2,2-dimethylpropanoic acid]	0.0164
Cc1nn(C(F)F)cc1S(=O)(=O)N1C[C@H](CC(C)(C)C(=O)O)Oc2ccc(NC(=O)OC(C)(C)C(F)(F)F)cc21 [Example 12o, 3-[(2S)-4-{[1-(difluoromethyl)-3-methyl-1H-pyrazol-4-yl]sulfonyl}-6-{[(2,2,2-trifluoro-1,1-dimethylethoxy)carbonyl]ami-no}-3,4-dihydro-2H-1,4-benzoxazin-2-yl]-2,2-dimethylpropanoic acid]	0.0149
